Series [1] can be described thus: Evaluation of molecule stability (alkali treatment, LC/MS residual rate). It is filed as physicochemical. The note with it: 500 μM peptide plus equivalent of 1 M sodium hydroxide, 15° C., 20 minutes, LC/MS peak area. In outline:
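Cyclic peptide at 500 μM in water treated with an equivalent of 1 M NaOH for 20 minutes at 15° C. Residual rate is the total LC/MS peak area after treatment relative to that before treatment, set as 100%. Analysis on a C18 column at 45° C with ammonium formate pH 3 eluents and ESI detection.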

Another series has as its target human integrin αvβ5 (Homo sapiens, UniProt P06756+P18084). In words: Evaluation of integrin binding property (surface plasmon resonance, Biacore 3000, immobilized cyclic peptide). The method, boiled down:
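Cyclic peptides amine-coupled to a CM5 chip via EDC/NHS, with a blank reference channel; integrin injected 10 min at 25 °C at 30, 100, 300 and 1,000 nM in HEPES pH 7.4, 150 mM NaCl, 5 mM MgCl2, then 30 min buffer flow, EDTA regeneration. Kd from reference-subtracted responses, graded by category.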
In general terms: Surface plasmon resonance follows binding to a sensor surface in real time, without labels.

The mark [2] stands for this setting: peptide immobilized on CM5 sensor chip, human integrin αvβ5 30-1,000 nM, 25° C., HEPES buffer with 5 mM magnesium chloride, read-out: Integrin binding property (dissociation constant).

Results on six compounds are retold here after patent publication US12624067B2, “Cyclic peptide, cell scaffold material, cell separating material, and medium” (FUJIFILM Corporation, priority 2019, dated 2026).

Read-outs that look alike come from different tables or passages of the source. Numbered stars: 1 amine (or outer) side, 2 acyl side, 3 side chain; on linkers, the order of the positions; unused ones are H or OH. Bridge positions count the residues as written; N and C are the ends. Square brackets hold non-standard residues; d marks the D form. Peptide text beside a SMILES is read from it. hCys = N[C@@H](CCS)C(=O)O; Orn = NCCC[C@H](N)C(=O)O; X1 = O=C(C[*:1])[*:2]

Chain of human integrin αvβ5 (P06756 31-889 limits assumed): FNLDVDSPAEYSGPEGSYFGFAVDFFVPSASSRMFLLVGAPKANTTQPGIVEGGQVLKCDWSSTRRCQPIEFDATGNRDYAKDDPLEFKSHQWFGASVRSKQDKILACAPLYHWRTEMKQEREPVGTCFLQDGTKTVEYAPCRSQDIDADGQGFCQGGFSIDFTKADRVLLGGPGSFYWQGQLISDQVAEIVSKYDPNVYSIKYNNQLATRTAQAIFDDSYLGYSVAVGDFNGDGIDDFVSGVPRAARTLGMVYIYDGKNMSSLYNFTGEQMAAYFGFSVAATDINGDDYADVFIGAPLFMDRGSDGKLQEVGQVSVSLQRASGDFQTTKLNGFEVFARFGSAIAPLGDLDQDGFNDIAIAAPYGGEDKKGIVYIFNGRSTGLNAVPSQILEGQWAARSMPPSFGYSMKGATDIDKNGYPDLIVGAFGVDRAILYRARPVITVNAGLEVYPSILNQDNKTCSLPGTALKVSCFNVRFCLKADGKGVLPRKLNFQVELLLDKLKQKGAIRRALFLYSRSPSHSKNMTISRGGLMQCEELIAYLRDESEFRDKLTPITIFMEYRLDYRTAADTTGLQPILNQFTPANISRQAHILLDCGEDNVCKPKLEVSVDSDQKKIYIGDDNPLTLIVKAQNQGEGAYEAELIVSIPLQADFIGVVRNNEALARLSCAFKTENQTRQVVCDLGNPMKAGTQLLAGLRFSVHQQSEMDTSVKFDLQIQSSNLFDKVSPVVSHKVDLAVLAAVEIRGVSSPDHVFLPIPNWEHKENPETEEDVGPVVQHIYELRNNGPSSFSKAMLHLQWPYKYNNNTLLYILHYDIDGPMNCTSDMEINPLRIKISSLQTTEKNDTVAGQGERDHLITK
Chain of human integrin αvβ5 (P06756 891-1048 partner limits assumed): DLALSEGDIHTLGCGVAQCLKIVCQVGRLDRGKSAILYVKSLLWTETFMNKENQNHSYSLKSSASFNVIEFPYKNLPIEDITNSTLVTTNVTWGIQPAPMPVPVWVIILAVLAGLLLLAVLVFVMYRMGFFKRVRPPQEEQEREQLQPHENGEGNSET
Chain of human integrin αvβ5 (P18084 24-799): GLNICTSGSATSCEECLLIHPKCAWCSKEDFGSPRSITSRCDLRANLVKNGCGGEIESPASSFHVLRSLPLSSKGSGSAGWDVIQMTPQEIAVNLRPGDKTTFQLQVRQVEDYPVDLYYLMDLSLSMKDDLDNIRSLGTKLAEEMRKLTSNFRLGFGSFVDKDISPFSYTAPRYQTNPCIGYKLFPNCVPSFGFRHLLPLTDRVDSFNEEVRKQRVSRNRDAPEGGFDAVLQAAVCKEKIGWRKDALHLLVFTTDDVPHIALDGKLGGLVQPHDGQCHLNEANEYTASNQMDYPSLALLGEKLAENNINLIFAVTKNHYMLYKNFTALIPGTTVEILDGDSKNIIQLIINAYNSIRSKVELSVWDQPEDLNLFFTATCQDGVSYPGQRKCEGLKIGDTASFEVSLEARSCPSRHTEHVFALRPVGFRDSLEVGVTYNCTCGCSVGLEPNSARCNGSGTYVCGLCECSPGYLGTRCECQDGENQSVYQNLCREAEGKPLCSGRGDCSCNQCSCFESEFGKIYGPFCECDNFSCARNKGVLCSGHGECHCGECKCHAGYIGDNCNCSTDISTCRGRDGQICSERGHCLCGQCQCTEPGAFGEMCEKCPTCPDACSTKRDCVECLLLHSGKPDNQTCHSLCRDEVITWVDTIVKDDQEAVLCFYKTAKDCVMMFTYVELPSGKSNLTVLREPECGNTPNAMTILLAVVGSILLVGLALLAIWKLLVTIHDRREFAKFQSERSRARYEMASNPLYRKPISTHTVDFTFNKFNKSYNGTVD

In the case of `N=C(N)NCCC[C@@H]1NC(=O)[C@@H]2CCSCC(=O)NCCC[C@H](NC(=O)[C@H](CC(=O)O)NC(=O)CNC1=O)C(=O)N[C@@H](Cc1ccccc1)C(=O)N[C@H](C(=O)N[C@@H](CCCCN)C(=O)N[C@@H](CCCCN)C(=O)N[C@@H](CCCCN)C(=O)O)CCSCC(=O)N[C@@H](CCC(=O)O)C(=O)N2` [Cyclic peptide 43] ({CH2CO}-E[hCys]RGD[Orn]F[hCys]KKK-OH; linker 2-6 via X1; thioether N-8), in series [1], the “Molecule stability (cyclic peptide residual rate)” value was “A (The residual rate of the cyclic peptide is 70% or more.)”. The Kd on human integrin αvβ5 (setting [2]) was below 50 nM.

Regarding `CC(C)[C@@H]1NC(=O)CSCC[C@@H](C(=O)N[C@@H](C)C(=O)N[C@@H](CCCCN)C(=O)N[C@@H](CCCCN)C(=O)N[C@@H](CCCCN)C(=O)O)NC(=O)[C@H](Cc2ccccc2)NC(=O)[C@@H]2CCCCNC(=O)CSCC[C@H](NC1=O)C(=O)N[C@@H](CCCNC(=N)N)C(=O)NCC(=O)N[C@@H](CC(=O)O)C(=O)N2` [Cyclic peptide 44] ({CH2CO}-V[hCys]RGDKF[hCys]AKKK-OH; linker 2-6 via X1; thioether N-8), the “Molecule stability (cyclic peptide residual rate)” value in series [1] is on record as “A (The residual rate of the cyclic peptide is 70% or more.)”. In addition, the Kd on human integrin αvβ5 (setting [2]) was below 50 nM.

In the case of `C[C@H](NC(=O)[C@@H]1CCSCC(=O)N[C@@H](CC(=O)O)C(=O)N[C@H]2CCSCC(=O)NCCCC[C@H](NC(=O)[C@H](CC(=O)O)NC(=O)CNC(=O)[C@H](CCCNC(=N)N)NC2=O)C(=O)N[C@@H](Cc2ccccc2)C(=O)N1)C(=O)N[C@@H](CCCCN)C(=O)N[C@@H](CCCCN)C(=O)N[C@@H](CCCCN)C(=O)O` [Cyclic peptide 45] ({CH2CO}-D[hCys]RGDKF[hCys]AKKK-OH; linker 2-6 via X1; thioether N-8), the “Molecule stability (cyclic peptide residual rate)” value in series [1] is “A (The residual rate of the cyclic peptide is 70% or more.)”. Besides, the Kd on human integrin αvβ5 (setting [2]) is below 50 nM.

In the case of `C[C@H](NC(=O)[C@@H]1CCSCC(=O)N[C@@H](CCC(=O)O)C(=O)N[C@H]2CCSCC(=O)NCCCC[C@H](NC(=O)[C@H](CC(=O)O)NC(=O)CNC(=O)[C@H](CCCNC(=N)N)NC2=O)C(=O)N[C@@H](Cc2ccccc2)C(=O)N1)C(=O)N[C@@H](CCCCN)C(=O)N[C@@H](CCCCN)C(=O)N[C@@H](CCCCN)C(=O)O` [Cyclic peptide 46] ({CH2CO}-E[hCys]RGDKF[hCys]AKKK-OH; linker 2-6 via X1; thioether N-8), the “Molecule stability (cyclic peptide residual rate)” value in series [1] is “A (The residual rate of the cyclic peptide is 70% or more.)”. On human integrin αvβ5 (setting [2]), the Kd was below 50 nM.

With `C[C@H](NC(=O)[C@@H]1CCSCC(=O)N[C@@H](CCC(=O)O)C(=O)N[C@H]2CCSCC(=O)NCCC[C@H](NC(=O)[C@H](CC(=O)O)NC(=O)CNC(=O)[C@H](CCCNC(=N)N)NC2=O)C(=O)N[C@@H](Cc2ccccc2)C(=O)N1)C(=O)N[C@@H](CCCCN)C(=O)N[C@@H](CCCCN)C(=O)N[C@@H](CCCCN)C(=O)O` [Cyclic peptide 47] ({CH2CO}-E[hCys]RGD[Orn]F[hCys]AKKK-OH; linker 2-6 via X1; thioether N-8), the “Molecule stability (cyclic peptide residual rate)” value in series [1] is “A (The residual rate of the cyclic peptide is 70% or more.)”. Further, the Kd on human integrin αvβ5 (setting [2]) is below 50 nM.

Regarding `C[C@H](N)C(=O)N[C@H]1CSSC[C@@H](C(=O)NCC(=O)N[C@@H](CCCCN)C(=O)N[C@@H](CCCCN)C(=O)N[C@@H](CCCCN)C(=O)O)NC(=O)[C@H](Cc2ccccc2)NC(=O)[C@@H]2CSSC[C@H](NC(=O)[C@H](CC(=O)O)NC1=O)C(=O)N[C@@H](CCCNC(=N)N)C(=O)NCC(=O)N[C@@H](CC(=O)O)C(=O)N2` [Cyclic peptide 49, ACDCRGDCFCGKKK, reference compound] (H-ACDCRGDCFCGKKK-OH; disulfide 2-10, 4-8), in series [1], the “Molecule stability (cyclic peptide residual rate)” value is reported as “D (The residual rate of the cyclic peptide is less than 30%.)”. Also, at human integrin αvβ5, the Kd is below 50 nM.
